According to paper PMC5559341 (ACS chemical neuroscience, 2017):

What was measured:
Assay in all cases: TEVC electrophysiology, Xenopus oocytes
Format in all cases: cell-based
GluN1/2C = GluN1/2C (Rattus norvegicus, UniProt P35439+Q00961)
GluN1/2B = GluN1/2B (Rattus norvegicus, UniProt P35439+Q00960)
GluN1/2D = GluN1/2D (Rattus norvegicus, UniProt P35439+Q62645)
GluN1/2A = GluN1/2A (Rattus norvegicus, UniProt P35439)

SMILES	EC50 (GluN1/2C)	EC50 (GluN1/2B)	EC50 (GluN1/2D)	EC50 (GluN1/2A)
N[C@@H](COCc1ccccc1)C(=O)O [8b]	> 300 µM	> 300 µM	> 300 µM	–
CCCCSC[C@H](N)C(=O)O [10a, S-Butyl L-cysteine]	> 300 µM	–	> 300 µM	–
CCCCSC[C@@H](N)C(=O)O [10b, S-Butyl D-cysteine]	> 300 µM	> 300 µM	> 300 µM	–
N[C@@H](CSCc1ccccc1)C(=O)O [11a, S-benzyl substituted L-cysteine]	87 µM	–	> 300 µM	–
N[C@H](CSCc1ccccc1)C(=O)O [11b, S-benzylated D-cysteine]	> 300 µM	–	> 300 µM	–
CCCCC(=O)NC[C@@H](N)C(=O)O [13a, pentanamido analogue 13a]	206 µM	> 300 µM	> 300 µM	> 300 µM
CCCCC(=O)NC[C@H](N)C(=O)O [13b]	> 300 µM	–	> 300 µM	–
